Active and inactive are the calls of the source.
Key:
[1] = molecular target: Sphingosine 1-phosphate receptor 2 (Homo sapiens, UniProt O95136); assay: Dose Response Cell Based Assay for Agonists of the S1P2 Receptor. [Related pubchem assays: 729, 736, 843 ]; format: functional
[2] = A cytotoxicity screen of small molecule inhibitors of the PhoP region in Salmonella typhi identified in the primary screen. [Related pubchem assays: 1850, 1864, 1985 ]; format: functional
[3] = molecular target: Glutathione-S-transferase (Schistosoma japonicum, UniProt Q26513); assay: biotin-GST/anti-GST TR-FRET signal inhibitors, dose response, artefact control for Vif-APOBEC3G degradation inhibitor project, biochemical (AID 1117362); format: functional
Transthyretin = Transthyretin (Homo sapiens, UniProt P02766); assay: Luminescence-based cell-based high throughput dose response assay to identify activators of Transthyretin (TTR) transcription.; format: functional
[4] = molecular target: E3 ubiquitin-protein ligase Mdm2 (Homo sapiens, UniProt Q00987); assay: enhancers of MDM2-luciferase reporter signal, concentration-effect titration, project on inhibitors of MDM2 ubiquitin ligase, cellular assay, luminescent readout, 384-well plate format (AID 1394); format: functional;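 note: MDM2 E3 inhibitors raise luminescence so EC50 is for signal enhancement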
[5] = molecular target: SWI/SNF-related matrix-associated actin-dependent regulator of chromatin subfamily A member 2 (Homo sapiens, UniProt P51531); assay: Luminescence-based cell-based high throughput dose response assay to identify activators of the function of SWI/SNF related, matrix associated, actin dependent regulator of chromatin, subfamily a, member 2 (SMARCA2, BRM).; format: functional
[6] = cytotoxicity in A549 cells, dose response, cytotoxicity control, cell-based, CellTiter-Glo luminescence, cherry-pick (AID 743484); format: functional
[7] = Counterscreen for activators of the function of SWI/SNF related, matrix associated, actin dependent regulator of chromatin, subfamily a, member 2 (SMARCA2, BRM): Luminescence-based cell-based high throughput dose response assay to identify non-selective compounds using the VP16 reporter assay.; format: functional
[8] = molecular target: DNA repair and recombination protein RAD54-like (Homo sapiens, UniProt Q92698); assay: inhibitors of human RAD54 branch migration, confirmation, biochemical, fluorescence, cherry-picked samples, dose series (AID 651657); format: functional
[9] = inhibitors of SNCA 5'UTR-driven reporter translation, confirmation, H4 neuroglioma cells, luminescence (AID 1988); format: functional, cell-based
[10] = molecular target: T1, Heat shock factor protein 1 (Mus musculus, UniProt P38532); assay: HSF1 potentiators in luciferase reporter cells, confirmation, cell-based, NIH3T3, luminescence, dose retest (AID 435004); format: functional;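 note: stress induced by proteasome inhibitor MG132 added 30 min after compound; luciferase reporter driven by HSF1 response element in NIH3T3 cells; actives raise luminescence as potentiators of the MG132 stress response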
T1 sequence (P38532 whole entry): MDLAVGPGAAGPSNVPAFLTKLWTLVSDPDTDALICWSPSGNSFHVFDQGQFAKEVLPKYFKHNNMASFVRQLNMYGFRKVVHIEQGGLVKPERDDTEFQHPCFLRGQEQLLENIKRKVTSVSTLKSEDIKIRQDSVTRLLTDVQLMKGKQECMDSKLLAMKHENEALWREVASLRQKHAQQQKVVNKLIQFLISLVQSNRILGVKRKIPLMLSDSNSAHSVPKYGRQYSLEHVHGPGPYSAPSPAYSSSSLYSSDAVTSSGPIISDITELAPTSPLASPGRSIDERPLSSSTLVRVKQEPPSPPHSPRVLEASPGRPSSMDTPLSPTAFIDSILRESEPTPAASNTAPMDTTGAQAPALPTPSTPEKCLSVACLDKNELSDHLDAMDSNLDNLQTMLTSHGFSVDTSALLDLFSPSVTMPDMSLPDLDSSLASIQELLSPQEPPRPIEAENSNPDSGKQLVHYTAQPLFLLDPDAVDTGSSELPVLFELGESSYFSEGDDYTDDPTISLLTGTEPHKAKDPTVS

[11] = HEK293T cell cytotoxicity, dose response, cytotoxicity control, CellTiter-Glo luminescence, cherry-picked samples, set 4 (AID 743441); format: functional, cell-based; settings: HEK293
[12] = Luminescence Cell-Based Dose Response HTS to Identify Inhibitors of 5'UTR Stem-Loop Driven Prion Protein mRNA Translation in H4 Neuroglioblastoma Cells. [Related pubchem assays: 1827 (Project Summary), 1813 (Primary HTS)]; format: functional
Major prion protein = Major prion protein (Homo sapiens, UniProt P04156); format: functional, cell-based
[13] = molecular target: Mitogen-activated protein kinase 10 (Homo sapiens, UniProt P53779); assay: Dose response biochemical screening assay for inhibitors of c-Jun N-Terminal Kinase 3 (JNK3). [Related pubchem assays: 746 ]
cells [14] = assay: cells
[15] = molecular target: Oxysterols receptor LXR-beta (Homo sapiens, UniProt P55055); assay: LXR agonists, Gal4 luciferase reporter, dose response, counter-screen for ssDAF-12 agonist project, cell-based, luminescence, HEK293, S. stercoralis campaign (AID 720737); format: functional; settings: read-out: IC50 (the source's name)
[16] = Luminescence-based cell-based high throughput dose response assay to identify activators of the DAF-12 from the parasite S. stercoralis (ssDAF-12).; format: functional
Kallikrein-7 = Kallikrein-7 (Homo sapiens, UniProt P49862); assay: Fluorescence Intensity-based biochemical primary high throughput dose response assay to identify activators of kallikrein-7 (K7) zymogen.
[17] = HIV Env cell-cell fusion inhibitors, dose response, HIV entry, plate reader, dry powder (AID 687023); format: functional, cell-based
[18] = CEM21 cell cytotoxicity, dose response, cytotoxicity control, plate reader, dry powder (AID 687026); format: functional, cell-based
[19] = TRPM1 promoter luciferase reporter signal decrease, dose response, MITF inhibitor project, cell-based, SK-MEL-5, dry powder, set 9 (AID 651588); format: functional
[20] = SK-MEL-5 parental line viability, dose response, MITF inhibitor project, cell-based, CellTiter-Glo, dry powder, set 6 (AID 624429); format: functional
[21] = A375 melanoma cell viability loss, dose response, counter-screen for MITF inhibitor project, CellTiter-Glo luminescence, dry powder, set 4 (AID 624364); format: functional, cell-based; settings: A-375;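 note: A375 melanoma cells are MITF independent so this is a counter screen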
[22] = MALME3 melanoma cell viability reduction, dose response, orthogonal assay for MITF inhibitor project, CellTiter-Glo luminescence, dry powder, set 5 (AID 651584); format: functional, cell-based; settings: MALME-3
[23] = MITF Orthogonal Assay: SK-MEL-5 CTG Assay Measured in Cell-Based System Using Plate Reader - 2084-02_Inhibitor_Dose_DryPowder_Activity_Set5.; format: functional
[24] = MITF Orthogonal Assay: MALME3 CTG Assay Measured in Cell-Based System Using Plate Reader - 2084-04_Inhibitor_Dose_DryPowder_Activity_Set6.; format: functional; settings: MALME-3
[25] = SK-MEL-5 parental cell viability reduction, dose response, orthogonal assay for MITF inhibitor project, CellTiter-Glo luminescence, dry powder, set 8 (AID 651586); format: functional, cell-based
[26] = MITF Measured in Cell-Based System Using Plate Reader - 2084-01_Inhibitor_Dose_DryPowder_Activity_Set6.; format: functional
[27] = MITF Measured in Cell-Based System Using Plate Reader - 2084-01_Inhibitor_Dose_DryPowder_Activity_Set7.; format: functional
[28] = molecular target: G-protein coupled receptor 183 (Homo sapiens, UniProt P32249); assay: SAR confirmation of small molecule antagonists of the EBI2 receptor via a luminescent beta-arrestin assa.; format: functional
[29] = HepG2 cell cytotoxicity, dose response, cytotoxicity control, plate reader, dry powder samples (AID 1159569); format: functional, cell-based;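 note: inhibitor potency with signal falling toward the positive control level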
[30] = P. falciparum 3D7-ScDHODH growth inhibitors, dose response, SYBR Green, dry powder samples (AID 1159570); format: functional, cell-based;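 note: parasite growth measured after 72 hours of compound exposure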
[31] = P. falciparum Dd2 growth inhibitors, dose response, SYBR Green, cherry-picked samples (AID 1159567); format: functional, cell-based
[32] = P. falciparum ATP4 D1247Y mutant growth inhibitors, dose response, NITD609-resistant line, SYBR Green, dry powder (AID 1159571); format: functional, cell-based;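 note: parasites synchronized at ring stage by sorbitol before testing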
[33] = P. falciparum Dd2 growth inhibitors, dose response, SYBR Green, dry powder samples (AID 1159566); format: functional, cell-based;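 note: potency for growth inhibition with lower SYBR green DNA signal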
[34] = molecular target: RNA-editing ligase 1, mitochondrial (Trypanosoma brucei brucei, UniProt P86926); assay: TbREL1 ligase inhibitors, dose response, biochemical, fluorescence, Trypanosoma brucei (AID 1117295); format: functional
Phospholipase D2 = Phospholipase D2 (Homo sapiens, UniProt O14939); assay: PLD2 Cellular Concentration Response Study.; format: functional
Phospholipase D1 = Phospholipase D1 (Homo sapiens, UniProt Q13393); assay: PLD1 Cellular Concentration Response Study.; format: functional
[35] = molecular target: Calcium-dependent protein kinase 1 (Plasmodium falciparum, UniProt P62344); assay: PfCDPK1 kinase inhibitors, biochemical, TCAMS library (AID 1159585); format: functional
cells [36] = format: functional, cell-based; settings: INS-1E
[37] = Dose-response inhibition of insulin secretion in a rat insulinoma line at 5 mM glucose (AID 1117331); format: functional, cell-based; settings: INS-1E
Cytochrome P450 1A2 = molecular target: T2, Cytochrome P450 1A2 (Homo sapiens, UniProt P05177);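 note: PubChem cytochrome P450 panel assay, CYP1A2 panel member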
T2 sequence (P05177 whole entry): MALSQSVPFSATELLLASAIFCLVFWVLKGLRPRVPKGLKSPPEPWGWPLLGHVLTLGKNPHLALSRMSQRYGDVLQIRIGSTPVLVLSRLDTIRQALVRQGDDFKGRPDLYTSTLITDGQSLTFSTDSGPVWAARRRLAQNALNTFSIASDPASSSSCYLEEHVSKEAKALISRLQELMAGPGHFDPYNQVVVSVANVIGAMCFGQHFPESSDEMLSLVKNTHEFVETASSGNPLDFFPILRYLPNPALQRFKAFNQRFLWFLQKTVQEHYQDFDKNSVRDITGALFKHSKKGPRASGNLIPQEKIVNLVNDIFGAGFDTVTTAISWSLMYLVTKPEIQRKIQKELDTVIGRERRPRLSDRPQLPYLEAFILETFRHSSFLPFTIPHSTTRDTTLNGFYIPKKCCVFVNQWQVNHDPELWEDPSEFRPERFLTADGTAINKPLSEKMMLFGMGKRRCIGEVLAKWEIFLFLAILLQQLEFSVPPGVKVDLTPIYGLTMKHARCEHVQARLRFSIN

Cc1cc(Br)ccc1OCCCCNCCO
EC50 [1]: > 50 µM (not active)
EC50 [2]: > 50 µM (active)

O=C(O)C1Cc2ccccc2N2CCCC12 (stereo not drawn)
IC50 [3]: 16.3 µM (active)

O=C(O)c1ccc(CSc2nnc(Cc3ccccc3)o2)cc1
EC50 (Transthyretin): > 167 µM (inactive)

CN1C(C(=O)NCc2cccc(Br)c2)CC2Cn3c(nc4cc5ccccc5cc43)C21 (stereo not drawn)
EC50 [4]: 11.1 µM (not active)

CCN(CC)CCn1c2ccccc2c2nc3ccc([N+](=O)[O-])cc3cc21
EC50 [5]: 7.55 µM (active)
AC50 [6]: 39.6 µM (active)
EC50 [7]: > 91.2 µM (inactive)
AC50 [8]: 1.56 µM (active)
EC50 [9]: 8.22 µM (inconclusive)
EC50 [10]: 15.8 µM (active)
AC50 [11]: 5.85 µM (active)
EC50 [12]: > 120 µM (not active)

O=C(O)CSc1ccc2ccccc2n1
IC50 (Major prion protein): 6.89 µM (active)
IC50 [13]: > 93.1 µM (not active)
IC50 (cells [14]): > 138 µM (inactive)

c1ccc(SCc2nc3ccccc3s2)nc1
EC50 [15]: > 67.5 µM (inactive)
IC50 [16]: > 67.5 µM (inactive)

O=C1NC(C2CC3C=CC2C3)Nc2ccccc21 (stereo not drawn)
EC50 (Kallikrein-7): > 69.4 µM (inactive)

CCOc1ccc(S(=O)(=O)NCc2ccncc2)cc1OCC
AC50 [17]: 0.562 µM (active)
AC50 [18]: > 70 µM (inactive)

NC1=C(NS(=O)(=O)c2ccc(Br)cc2)C(=O)c2ccccc2C1=O
AC50 [19]: > 70 µM (inactive)
AC50 [20]: > 70 µM (inactive)
AC50 [21]: > 70 µM (inactive)
AC50 [22]: > 70 µM (inactive)
AC50 [23]: > 70 µM (inactive)
AC50 [24]: > 70 µM (inactive)
AC50 [25]: > 70 µM (inactive)
AC50 [26]: 41.5 µM (active)
AC50 [27]: 53.6 µM (active)

O=C(Cc1ccc(Br)cc1)N1CCN(C(=O)c2ccc(Cl)cc2)CC1
IC50 [28]: > 1 µM (inactive)

CC(C)CC#Cc1ccc([C@@H]2[C@H](CO)N3CCCCN(S(=O)(=O)Cc4ccccc4)C[C@@H]23)cc1
AC50 [29]: 9.93 µM (active)
AC50 [30]: 1.48 µM (active)
AC50 [31]: 2.3 µM (active)
AC50 [32]: 0.957 µM (active)
AC50 [33]: 0.805 µM (active)

C=CCNC1=NC(c2ccc(F)cc2)C(C(=O)OC)=C(C)N1Cc1ccccc1C(F)(F)F (stereo not drawn)
IC50 [34]: > 96.6 µM (inactive)

O=C(NCCN1CCC2(CC1)C(=O)NCN2Cc1cccc(Cl)c1)c1ccc2ccccc2c1
IC50 (Phospholipase D2): 0.25 µM (active)
IC50 (Phospholipase D1): 2.8 µM (active)

CC(C)(CN)c1nc(-c2ccc(Cl)c(O)c2)c(-c2ccnc(N)n2)[nH]1
IC50 [35]: 0.007 µM (active)

CCN(CC)CCOCCOC(=O)C1(c2ccccc2)CCCC1 [CARBETAPENTANE]
IC50 (cells [36]): > 33.3 µM (inactive)
IC50 [37]: 7.69 µM (inactive)
AC50 (Cytochrome P450 1A2): 20 µM (inconclusive)

Reference: ChEMBL document CHEMBL1201862, “PubChem BioAssay data set” (2004)
